Test results published in patent publication US8987328B2, “Esters of capsaicinoids as dietary supplements” (Trinity Laboratories, Inc., priority 2008, dated 2015).
Where two headings read alike, the source gives them in different places.

Key:
[1] = cited from earlier work
[2] = p<0.05, cited from earlier work
[3] = i.v. administration, rats; cited from earlier work
[4] = cited from earlier work; remark: listed apart in the source
[5] = in vivo, po
[6] = design: species or system human; conditions: in vivo
[7] = design: species or system human; conditions: in vivo; remark: listed apart in the source
[8] = 30% lard diet, capsaicin 0.14% of diet
[9] = cholesterol-free diet, 4 mg per animal daily, relative to controls
[10] = diet with 0.2% cholesterol, 4 mg per animal daily

Compound: COc1cc(CNC(=O)CCCCC=CC(C)C)ccc1O [capsaicin, 8-methyl-N-vanillyl-6-nonenamide]
- serum triglyceride levels ([1]; 30% lard diet, capsaicin 0.14% of diet, vs high-fat diet without capsaicin): significantly lower
- levels of cholesterol [1, 8]: not affected
- levels of free fatty acids [1, 8]: not affected
- levels of pre-beta-lipoprotein [1, 8]: not affected
- weight of perirenal adipose tissue ([1]; high-fat diet rats): reduced in a dose-dependent manner
- plasma insulin levels ([2]; OGTT in dogs): elevation
- blood glucose levels ([2]; at 2.5 h in OGTT, n=6, control 6.40+/−0.13): 4.91 mM
- time to distribution to brain, spinal cord, liver and blood [3]: ≤ 20 min
- HDL-cholesterol [4, 9]: increased significantly
- LDL-cholesterol [4, 9]: increased significantly
- VLDL cholesterol [4, 9]: decreased significantly
- total cholesterol [4, 9]: increased significantly
- serum triglyceride concentrations ([4]; cholesterol-free diet, 4 mg per animal daily): Neither drug had an effect
- HDL-cholesterol [4, 10]: increased
- VLDL-cholesterol [4, 10]: reduced

Compound: COc1cc(CNC(=O)CCCCCCC(C)C)ccc1O [dihydrocapsaicin]
- HDL-cholesterol ([4]; in vivo): increased significantly
- VLDL cholesterol ([4]; in vivo): decreased significantly
- VLDL-cholesterol ([4]; in vivo): reduced
- serum triglyceride concentrations ([4]; in vivo): Neither drug had an effect
- triglycerides ([4]; in vivo): decreased significantly

Compound: Palmitoyl Ester of Capsaicin USP [palmitoyl-capsaicin USP]
- burning or irritation in the stomach [5]: No individual complained of burning or irritation in the stomach
- body weight [6]: maintained an average weight
- body weight fluctuation over and under average [6]: 2-3 pounds
- LDL cholesterol [7]: ~110 mg/dL
- cholesterol level [7]: normal level
